Experimental findings from article PMC6013238, “Development of novel NEMO-binding domain mimetics for inhibiting IKK/NF-κB activation” (PLoS Biology, 2018) are described below.

Values joined by “and” are separate entries in the source; they are usually repeats but may differ in a detail not shown here. Equal values may be shown once. Read-outs that look alike come from different tables or passages of the source.

The nature of data set [1]: Mouse PK, i.v. and oral gavage. The class given is in vivo. The note with it: for bioavailability: PO 10mg/Kg versus IV, Avg. The method, then: Supplementary file pbio.2004663.s002.tif: S1 Fig IC50 and the complete pharmacokinetic profiles of NBD mimetics. (A) Dose-dependent curve of NBD mimetics ranging from 0 to 150 μM was determined by NF-κB luciferase assays in HEK293 cells. (B) Complete pharmacokinetic profiles of SR12460 and SR12343 administered i.v. or by oral gavage in mice. Underlying data can be found in S1 Data. AUC%Extrap, percentage of the area under the curve extrapolated to infinity from Tlast to infinity; AUCINF_obs, area under the curve from 0 to infinity; AUClast, area under the curve from the time of dosing to the last measurable concentration; Cmax, maximum observed concentration; Clobs, total serum clearance; HEK, human embryonic kidney 293 cells; IC50, half maximal inhibitory concentration; NBD, NEMO-binding domain; NEMO, NF-κB essential modulator; NF-κB, nuclear factor κB; T1/2, half-life; Tmax, time of maximum concentration. (TIF) Click here for additional data file.

The test system of another data set is NF-κB target genes. The data set can be described thus: qRT-PCR of NF-κB target genes in LPS-stimulated Raw 264.7 cells. The class given is cell-based, mouse. The note with it: LPS 1 μg/ml 2 h; for Effect on transcription of NF-κB target genes (COX-2, IL-6, IL-1β, TNF-α, IκBα, iNOS): 50 μM.
For data set [2], the system named is p-IκBα (IKK kinase activity). The data set can be described thus: Western blot of p-IκBα after TNF-α in HEK293 cells. The class given is cell-based, human. The note with it: 100 μM, 30 min pretreatment, TNF-α 10 ng/ml 0, 5, 10 min. The method, then: To confirm that the NBD mimetics reduce IKK kinase activity, phosphorylation of IκBα by IKK in response to 10 ng/ml of TNF-α was measured by western blot at 0, 5, and 10 min after stimulation. […] To determine whether the mimetics also reduce NF-κB DNA binding activity, electrophoretic mobility shift assay (EMSA) was conducted both in vitro and in vivo. […] The addition of acetonitrile increased the stability of both ZINC compounds, especially ZINC 5 (Fig 3D).
Fig 3 Two identified small molecules reduce NF-κB DNA binding activity in vivo and in vitro. (A) Levels of p-IκBα with or without treatment in response to TNF-α were determined by western blot analysis. HEK293 cells were pretreated with DMSO, ZINC12909780 (100 μM), and ZINC5 (100 μM) for 30 min followed by the stimulation of 10 ng/ml of TNF-α for 0, 5, and 10 min. […]
Cell lysate was prepared in RIPA buffer (20 mM Tris-HCl [pH 7.5], 150 mM NaCl, 1 mM Na^2EDTA, 1 mM EGTA, 1% NP-40, 1% sodium deoxycholate, 2.5 mM sodium pyrophosphate, 1 mM beta-glycerophosphate, 1 mM Na3VO4, and 1 μg/ml leupeptin), supplemented with 1X protease inhibitor cocktails (MilliporeSigma, St. Louis, MO) and 1X Halt phosphatase inhibitor cocktail (ThermoFisher, Waltham, MA). Protein concentrations were determined by Lowry protein assays, and 30 μg of protein was resolved by MINI-PROTEAN TGX 4%–15% SDS-PAGE gels. […]
A general note: In western blotting, separated proteins are transferred to a membrane and probed.

[3] abbreviates: IV 2mg/Kg, single mice and Avg., 2 mg/kg.
The mark [4] stands for this setting: IV 2mg/Kg, single mice and Avg., 2 mg/kg, mean.
Setting [5] is: PO 10mg/Kg, single mice and Avg., 10 mg/kg.
[6] abbreviates: PO 10mg/Kg, single mice and Avg., 10 mg/kg, mean.
Where [7] appears, read: mouse, serum, po, 10 mg/kg, PO 10mg/Kg, single mice and Avg.
Where [8] appears, read: Fig 4C, IKKi VII 2 μM, 8K-NBD 200 μM, SR compounds 50 μM, relative to no LPS.

By Tmax is commonly meant the time from dosing to the highest level. One may read the half-life as how long it takes for the measured level to halve. Lower therefore signals fast loss. The AUC(0-t) is the area under the concentration-time curve up to a stated or last time point. Read a low AUC(0-t) as low exposure. Usually Cmax stands for the maximum level reached in the sampled fluid or tissue. The bioavailability is dose-corrected exposure relative to a reference, in per cent. A high value points to good availability. Turning to `O=C(CNCCc1cc(F)cc(F)c1)Nc1ccc(Cl)cn1` [SR12460], in data set [1] (setting [3]), the “AUC %Extrap” value is 17.95% and 11.52%; the MRTINF_obs is 3.50 h; the T1/2 stood at 2.57 h; the Vss_obs is 0.17 L/kg and 0.30 L/kg. Also, in data set [1] (setting [4]), the “AUC %Extrap” value is 14.74%, the MRTINF_obs was 3.99 h, the T1/2 came out at 2.99 h and the Vss_obs turned out to be 0.23 L/kg. Further, in data set [1] (setting [5]), the T1/2 was 1.99 h and 1.74 h; the Tmax came out at 1.00 h. In data set [1] (setting [6]), the T1/2 was 2.35 h and the time of peak concentration (Tmax) was 0.67 h. Besides, in data set [1] (mouse, serum, iv, 2 mg/kg, IV 2mg/Kg, single mice and Avg.), the half-life is 3.42 h. For the same molecule, the MRT inf in data set [1] (mouse, serum, iv, 2 mg/kg, IV 2mg/Kg, single mice and Avg., read-out: MRTINF_obs) came to 4.49 h. In data set [1] (setting [7]), the AUC(0-t) is 47600 ng·h/mL and 146 µM·h; the Cmax is 11200 ng/mL and 34.5 µM; the half-life was 3.31 h. The Tmax in data set [1] (mouse, serum, po, 10 mg/kg, PO 10mg/Kg, single mice and Avg., read-out: Tmax) is 0.5 h. This molecule also came in with a bioavailability in data set [1] (mouse, serum) of 20.1%. In the data set with NF-κB target genes (setting [8]), the “COX2 mRNA expression (qRT-PCR)” value is 38.9806 and 69.3201 and 44.3249; the “IL-1b mRNA expression (qRT-PCR)” value was 108.936; the “iNOS mRNA expression (qRT-PCR)” value is 2.289 and 2.778. For the same molecule, in the data set with NF-κB target genes, the “Effect on transcription of NF-κB target genes (COX-2, IL-6, IL-1β, TNF-α, IκBα, iNOS)” value is given as “significantly inhibit the transcription of all NF-κB target genes tested”.

Regarding `O=C(COC(=O)Cc1ccccc1F)Nc1ccc(Cl)cn1` [ZINC5], in data set [2], the “Level of p-IκBα following TNF-α stimulation” value is “reduced the level of p-IκBα”.

For `O=C(CNc1ccc(Cl)cn1)NCCc1cccc(Br)c1` [SR12343], the “AUC %Extrap” value in data set [1] (IV 1mg/Kg, single mice and Avg., 1 mg/kg) is 0.68% and 0.92% and 0.30%. For the same molecule, in data set [1] (IV 1mg/Kg, single mice and Avg., 1 mg/kg, mean), the “AUC %Extrap” value worked out at 0.63%. In data set [1] (setting [5]), the AUC %Extrap is 0.51% and 0.40% and 0.32%; the AUCINF_obs is 11013 ng·min/mL and 20121 ng·min/mL; the Cl_obs is 862.00 mL/min/kg and 908.01 mL/min/kg and 497.00 mL/min/kg; the T1/2 is 0.50 h. In data set [1] (setting [6]), this molecule yielded an AUC %Extrap of 0.41%, an AUCINF_obs of 14245 ng·min/mL, a Cl_obs of 755.67 mL/min/kg and a T1/2 of 0.53 h. Also, the “Oral activity (comparison)” value in data set [1] (S1B Fig) is on record as “not as orally active as SR123460”. The Tmax in data set [1] (mouse, serum, iv, 1 mg/kg, IV 1mg/Kg, single mice and Avg., read-out: Tmax) was found to be 0.08 h. Moreover, in data set [1] (setting [7]), the AUC(0-t) was 192 ng·h/mL and 0.52 µM·h; the highest concentration (Cmax) was 523 ng/mL and 1.43 µM; the half-life is 0.58 h. Besides, the AUC(0-inf) in data set [1] (mouse, serum, po, 10 mg/kg, PO 10mg/Kg, single mice and Avg., read-out: AUCINF_obs (converted)) was 193 ng·h/mL. The bioavailability in data set [1] (mouse, serum) is 0.86%. Besides, in the data set with NF-κB target genes (setting [8]), the “COX2 mRNA expression (qRT-PCR)” value was 201.141 and 209.385; the “IL6 mRNA expression (qRT-PCR)” value is 204.868 and 211.79; the “IL-1b mRNA expression (qRT-PCR)” value was 270.981 and 273.172; the “TNFa mRNA expression (qRT-PCR)” value was 84.4509 and 85.4634. For the same molecule, in the data set on NF-κB target genes (setting [8]), the “iNOS mRNA expression (qRT-PCR)” value was 6.825 and 6.083; the “ikBa mRNA expression (qRT-PCR)” value is 15.399 and 14.5661. Besides, in the data set with NF-κB target genes, the “Effect on transcription of NF-κB target genes (COX-2, IL-6, IL-1β, TNF-α, IκBα, iNOS)” value was “significant inhibition on COX-2, IL-6, and iNOS expression”.

In the case of `Nc1ncccc1C(=O)OCC(=O)Nc1ccc(Cl)cc1F` [ZINC12909780], in data set [2], the “Level of p-IκBα following TNF-α stimulation” value was “less robust reduction”.
